In ChEMBL document CHEMBL1777753, “Discovery of indeno[1,2-c]quinoline derivatives as inhibitors of osteoclastogenesis induced by receptor activator of NF-κB ligand (RANKL)” (J Med Chem, 2011):
The source made the active and inactive calls. The rule behind the calls is not given here.

How the values were obtained:
[1] = tested on: RAW264.7; assay: Inhibition of RANKL-induced osteoclastogenesis in mouse RAW264.7 cells assessed as decrease in TRAP-positive multi-nucleated cells after 5 days; assay type: functional, cell-based; settings: RAW264.7, 120 h
[2] = Cytotoxicity against mouse RAW264.7 cells assessed as cell survival rate at 10 uM by MTT assay; assay type: cell-based; settings: read-out: Survival
[3] = tested on: RAW264.7; assay: Inhibition of RANKL-induced osteoclastogenesis in mouse RAW264.7 cells assessed as decrease in TRAP-positive multi-nucleated cells at 10 uM after 5 days; assay type: functional
[4] = tested on: RAW264.7; assay: Ratio of EGCG IC50 for compound IC50 for inhibition of RANKL-induced osteoclastogenesis in mouse RAW264.7 cells; assay type: functional
[5] = Growth inhibition against human BT-483 cells; assay type: functional
[6] = tested on: SAS; assay: Growth inhibition against human SAS cells; assay type: functional
[7] = tested on: A549; assay: Growth inhibition against human A549 cells; assay type: functional
[8] = tested on: RAW264.7; assay: Inhibition of RANKL-induced osteoclastogenesis in mouse RAW264.7 cells; assay type: functional, cell-based

`COc1ccc2c(c1)C(=O)c1c-2c(S)nc2ccccc12` showed an IC50 [1] of 13.8 µM and a viability at 10 µM [2] of 63%.

In the case of `COc1ccc2c(c1)/C(=N\O)c1c-2c(OC)nc2ccccc12`, the IC50 [1] is reported as 8.44 µM and the viability at 10 µM [2] is reported as 46.9%.

`C=CCOc1nc2ccccc2c2c1-c1ccc(OC)cc1C2=O` showed an IC50 [1] of 15.4 µM and a viability at 10 µM [2] of 105%.

For `COc1ccc2c(c1)C(=O)c1c-2c(OC)nc2ccccc12`, the IC50 [1] was 2 µM, the viability at 10 µM [2] was 100% and the inhibition [3] was “Active”. For the same molecule, the “Ratio IC50” value [4] was 15.

For `COc1ccc2c(c1)/C(=N\OCCN1CCCC1)c1c-2c(O)nc2ccccc12`, the GI50 [5] was 0.79 µM, the GI50 [6] was 0.84 µM and the GI50 [7] was 0.89 µM.

`CNc1nc2ccccc2c2c1-c1ccc(OC)cc1C2=O` gave an IC50 [1] of 5.58 µM and a viability at 10 µM [2] of 25.9%.

With `C=CCOc1ccc2c(c1)C(=O)c1c-2c(OCC=C)nc2ccccc12` the IC50 [1] was 5.7 µM, the viability at 10 µM [2] was 75.1% and the inhibition [3] was “Active”.

For `CCOc1nc2ccccc2c2c1-c1ccc(OC)cc1C2=O`, the IC50 [1] was greater than 20 µM.

Molecule `COc1ccc2c(c1)/C(=N\O)c1c-2c(O)nc2ccccc12` has an IC50 [1] of 9.11 µM and a viability at 10 µM [2] of 85.2%.

With `COc1ccc2c(c1)C(=O)c1c-2c(SC)nc2ccccc12` the IC50 [1] was 2.58 µM, the viability at 10 µM [2] was 86.6% and the inhibition [3] was “Active”.

For `CC(C)Oc1ccc2c(=O)c(-c3ccccc3)coc2c1` [IPRIFLAVONE], the viability at 10 µM [2] was 102% and the inhibition at 10 µM ([3]; RAW264.7, 120 h) was 31%.

`O=C1c2cc(O)ccc2-c2c(O)nc3ccccc3c21` gave an IC50 [1] of 15.3 µM and a viability at 10 µM [2] of 16.8%.

With `COc1ccc2c(c1)C(=O)c1c-2cnc2ccccc12` the IC50 [1] was 1.43 µM, the viability at 10 µM [2] was 25.3% and the “Ratio IC50” value [4] was 20.

With `C=CCSc1nc2ccccc2c2c1-c1ccc(OC)cc1C2=O` the IC50 [1] was 15.6 µM and the viability at 10 µM [2] was 106%.

With `COc1ccc2c(c1)C(=O)c1c-2c(O)nc2ccccc12` the IC50 [1] was greater than 20 µM.

In the case of `CO/N=C1\c2cc(OC)ccc2-c2c(NOC)nc3ccccc3c21`, the IC50 [1] is reported as 1.58 µM, the viability at 10 µM [2] is reported as 105% and the inhibition [3] is reported as “Active”.

Work on `COc1ccc2c(c1)C(=O)c1c-2c(=O)n(C)c2ccccc12` yielded an IC50 [1] of 11.5 µM and a viability at 10 µM [2] of 66.6%.

`COc1ccc2c(c1)C(=O)c1c-2c(N)nc2ccccc12` showed an IC50 [1] greater than 20 µM.

For `C=CCOc1ccc2c(c1)C(=O)c1c-2c(=O)n(CC=C)c2ccccc12`, the IC50 [1] was greater than 20 µM.

In the case of `COc1ccc2c(c1)/C(=N\O)c1c-2cnc2ccccc12`, the IC50 [1] is reported as greater than 20 µM.

Work on `C#CCOc1ccc2c(c1)C(=O)c1c-2c(=O)n(CC#C)c2ccccc12` yielded an IC50 [1] greater than 20 µM.

For `Cc1ccc(-n2c(=O)n3n(c2=O)C2C(=CC3)C(C)(C)Oc3cc(O)ccc32)cc1` (configuration not stated), the IC50 [8] was 6.97 µM.

Molecule `C#CCOc1ccc2c(c1)C(=O)c1c-2c(OCC#C)nc2ccccc12` has an IC50 [1] of 9.46 µM and a viability at 10 µM [2] of 30.9%.

In the case of `C=CCn1c(=O)c2c(c3ccccc31)C(=O)c1cc(OC)ccc1-2`, the IC50 [1] is reported as greater than 20 µM.

For `CO/N=C1\c2cc(OC)ccc2-c2cnc3ccccc3c21`, the IC50 [1] was 4.79 µM and the viability at 10 µM [2] was 55.4%.

In the case of `CO/N=C1\c2cc(OC)ccc2-c2c(OC)nc3ccccc3c21`, the IC50 [1] is reported as 7.97 µM and the viability at 10 µM [2] is reported as 62.3%.

Work on `O=C(O[C@@H]1Cc2c(O)cc(O)cc2O[C@@H]1c1cc(O)c(O)c(O)c1)c1cc(O)c(O)c(O)c1` [EPIGALOCATECHIN GALLATE] yielded an IC50 [1] of 29.8 µM.
